This passage reports IC50 results from patent publication US20260103453A1, “NOVEL PYRIMIDINE DERIVATIVE AS BRUTON'S TYROSINE KINASE INHIBITOR” (HANMI PHARM. CO., LTD., priority 2022, published 2026).

For orientation: IC50 means the midpoint of a concentration-inhibition curve. Low values mean greater potency in that assay, high ones weaker potency in that assay.

The test concerns the target BTK enzyme (Homo sapiens, UniProt Q06187). In words: Z'-LYTE kinase assay, BTK enzyme activity inhibition (ThermoFisher SelectScreen). In kind it is biochemical. To be noted: 60 minutes reaction at room temperature, compound 1,000 nM to 0.32 nM. As for the experimental part:
To do this, the SelectScreen profiling service was requested to the ThermoFisher company to proceed the Z′-LYTE kinase assay. The simple test method can be summarized as follows.
The compounds prepared in Examples above were each dissolved in DMSO to prepare a 10 mM solution, which was then delivered to the ThermoFisher Scientific company. According to the protocol provided by the ThermoFisher Scientific company, the solution of each compound was diluted in 100% DMSO to a have a concentration of 1,000 nM to 0.32 nM (dilution factor of 1/5). Next, the BTK enzyme was diluted in a kinase buffer (50 mM HEPES (PH 7.5), 10 mM MgCl2, 1 mM EGTA, 0.01% BRIJ-35) to a concentration of up to 10 ng/assay. The test was performed in a low volume 384-well plate (low volume NBS, black 384-well plate). First, 100 nL of the diluted compound solution was added to a sample, and then 2.4 μL of buffer, 5 μL of mixed solution of peptide substrate and kinase at twice (2×) the concentration listed in the protocol, and 2.5 μL of 140 μm ATP solution were added thereto, followed by stirring for 30 seconds. Then, it was allowed for a reaction at room temperature for 60 minutes. Afterwards, 5 μL of a color developing solution was added thereto and stirred for 30 seconds, and fluorescence of the peptide substrate was reacted for 60 minutes. After completion of the reaction, each fluorescence value (400 nm excitation filter, 445/520 nm emission filter) was measured by using a fluorescence plate reader.

BTK enzyme, sequence (Q06187 whole entry): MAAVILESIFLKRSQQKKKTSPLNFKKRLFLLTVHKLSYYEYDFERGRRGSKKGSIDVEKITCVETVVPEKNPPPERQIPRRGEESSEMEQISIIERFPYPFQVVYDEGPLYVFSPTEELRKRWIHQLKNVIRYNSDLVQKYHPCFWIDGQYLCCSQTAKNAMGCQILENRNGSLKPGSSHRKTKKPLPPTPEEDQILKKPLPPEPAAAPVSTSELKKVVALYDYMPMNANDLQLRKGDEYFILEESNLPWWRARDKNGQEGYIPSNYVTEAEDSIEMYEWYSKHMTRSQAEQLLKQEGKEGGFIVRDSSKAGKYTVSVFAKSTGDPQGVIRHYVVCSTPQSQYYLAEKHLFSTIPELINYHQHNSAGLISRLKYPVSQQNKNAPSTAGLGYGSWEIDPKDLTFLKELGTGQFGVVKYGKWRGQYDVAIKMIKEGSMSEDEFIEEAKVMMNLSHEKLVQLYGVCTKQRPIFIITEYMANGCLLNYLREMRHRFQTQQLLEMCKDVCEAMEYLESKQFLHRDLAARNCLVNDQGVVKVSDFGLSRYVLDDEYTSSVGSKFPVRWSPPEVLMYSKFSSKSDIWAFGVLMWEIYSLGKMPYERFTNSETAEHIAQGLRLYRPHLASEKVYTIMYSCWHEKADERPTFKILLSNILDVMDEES

`C=CC(=O)N(C)CC#Cc1c(N)ncnc1-c1cc(F)cc(NC(=O)c2ccc(C(C)C)cc2F)c1C` [Example 1] showed an IC50 of 1.7 nM.
The result for `C=CC(=O)N(C)CC#Cc1c(N)ncnc1-c1cc(F)cc(NC(=O)c2ccc(C3CC3)cc2F)c1C` [Example 2] reads 1.5 nM; that for `C=CC(=O)N(C)CC#Cc1c(N)ncnc1-c1cc(F)cc(N2CCc3cc(C4CC4)cc(F)c3C2=O)c1` [Example 3, N-(3-(4-amino-6-(3-(6-cyclopropyl-8-fluoro-1-oxo-3,4-dihydroisoquinolin-2(1H)-yl)-5-fluorophenyl)pyrimidin-5-yl)prop-2-yn-1-yl)-N-methylacrylamide], 3.8 nM; that for `C=CC(=O)N(C)CC#Cc1c(N)ncnc1-c1cc(F)cc(N2CCc3cc(C4CC4)cc(F)c3C2=O)c1C` [Example 4, N-(3-(4-amino-6-(3-(6-cyclopropyl-8-fluoro-1-oxo-3,4-dihydroisoquinolin-2(1H)-yl)-5-fluoro-2-methylphenyl)pyrimidin-5-yl)prop-2-yn-1-yl)-N-methylacrylamide], 5.3 nM.
The result for `C=CC(=O)N(C)CC#Cc1c(N)ncnc1-c1cc(F)cc(-n2ccc3cc(C4CC4)cc(F)c3c2=O)c1` [Example 5, N-(3-(4-amino-6-(3-(6-cyclo-8-fluoro-1-oxoisoquinolin-2(1H)-yl)-5-fluorophenyl)pyrimidin-5-yl)prop-2-yn-1-yl)-N-methylacrylamide] reads 6 nM.
Take `C=CC(=O)N(C)CC#Cc1c(N)ncnc1-c1cc(F)cc(-n2ccc3cc(C4CC4)cc(F)c3c2=O)c1C` [Example 6, N-(3-(4-amino-6-(3-(6-cyclopropyl-8-fluoro-1-oxoisoquinolin-2(1H)-yl)-5-fluoro-2-methylphenyl)pyrimidin-5-yl)prop-2-yn-1-yl)-N-methylacrylamide]: the IC50 is 3 nM.
Molecule `C=CC(=O)N(C)CC#Cc1c(N)ncnc1-c1cc(F)cc(-n2ccc3cc(C4CC4)cc(F)c3c2=O)c1F` [Example 7, N-(3-(4-amino-6-(3-(6-cyclopropyl-8-fluoro-1-oxoisoquinolin-2(1H)-yl)-2,5-difluorophenyl)pyrimidin-5-yl)prop-2-yn-1-yl)-N-methylacrylamide] returned an IC50 of 20 nM.
Take `C=CC(=O)N(C)CC#Cc1c(N)ncnc1-c1cc(C)cc(-n2ccc3cc(C4CC4)cc(F)c3c2=O)c1C` [Example 8, N-(3-(4-amino-6-(3-(6-cyclopropyl-8-fluoro-1-oxoisoquinolin-2(1H)-yl)-2,5-dimethylphenyl)pyrimidin-5-yl)prop-2-yn-1-yl)-N-methylacrylamide]: the IC50 turned out to be 3.4 nM.
Under `C=CC(=O)NCC#Cc1c(N)ncnc1-c1cc(F)cc(-n2ccc3cc(C4CC4)cc(F)c3c2=O)c1C` [Example 9, N-(3-(4-amino-6-(3-(6-cyclopropyl-8-fluoro-1-oxoisoquinolin-2(1H)-yl)-5-fluoro-2-methylphenyl)pyrimidin-5-yl)prop-2-yn-1-yl)acrylamide] stands 34 nM; under `C=CC(=O)N(C)CC#Cc1c(N)ncnc1-c1cc(F)cc(-n2ncc3cc(C(C)(C)C)cc(F)c3c2=O)c1` [Example 10, N-(3-(4-amino-6-(3-(6-(tert-butyl)-8-fluoro-1-oxophthalazin-2-(1H)-yl)-5-fluorophenyl)pyrimidin-5-yl)prop-2-yn-1-yl)-N-methylacrylamide], 2.3 nM.
The result for `C=CC(=O)N(C)CC#Cc1c(N)ncnc1-c1cc(F)cc(-n2ncc3cc(C4CC4)ccc3c2=O)c1C` [Example 11, N-(3-(4-amino-6-(3-(6-cyclopropyl-1-oxophthalazin-2(1H)-yl)-5-fluoro-2-methylphenyl)pyrimidin-5-yl)prop-2-yn-1-yl)-N-methylacrylamide] reads 10 nM.
Consider `C=CC(=O)N(C)CC#Cc1c(N)ncnc1-c1cc(F)cc(-n2ncc3cc(C4CC4)cc(F)c3c2=O)c1C` [Example 12, N-(3-(4-amino-6-(3-(6-cyclopropyl-8-fluoro-1-oxophthalazin-2(1H)-yl)-5-fluoro-2-methylphenyl)pyrimidin-6-yl)prop-2-yn-1-yl)-N-methylacrylamide], for which the IC50 stood at 4.9 nM.
Under `C=CC(=O)N(C)CC#Cc1c(N)ncnc1-c1cc(F)cc(-n2ncc3cc(C(C)(C)C)cc(F)c3c2=O)c1C` [Example 13] stands 44 nM; under `C=CC(=O)N(C)CC#Cc1c(N)ncnc1-c1cc(F)cc(-n2ncc3cc(C(C)(C)C)ccc3c2=O)c1` [Example 14], 24 nM.
On to `C=CC(=O)N(C)CC#Cc1c(N)ncnc1-c1cc(F)cc(-n2cnc3cc(C4CC4)cc(F)c3c2=O)c1` [Example 15, N-(3-(4-amino-6-(3-(7-cyclopropyl-5-fluoro-4-oxoquinazolin-3(4H)-yl)-5-fluorophenyl)pyrimidin-5-yl)prop-2-yn-1-yl)-N-methylacrylamide], for which 34 nM corresponded to half-maximal inhibition (IC50).
Molecule `C=CC(=O)N1CCC[C@@H]1C#Cc1c(N)ncnc1-c1cc(F)cc(-n2ccc3cc(C4CC4)cc(F)c3c2=O)c1C` [Example 16, (R)-2-(3-(5-((1-acryloylpyrrolidin-2-yl)ethynyl)-6-aminopyrimidin-4-yl)-5-fluoro-2-methylphenyl)-6-cyclopropyl-8-fluoroisoquinolin-1-(2H)-one] displayed an IC50 of 29 nM.
Under `C=CC(=O)N1CCC[C@H]1C#Cc1c(N)ncnc1-c1cc(F)cc(-n2ccc3cc(C4CC4)cc(F)c3c2=O)c1C` [Example 17, (S)-2-(3-(5-((1-acryloylpyrrolidin-2-yl)ethynyl)-6-aminopyrimidin-4-yl)-6-fluoro-2-methylphenyl)-6-cyclopropyl-8-fluoroisoquinolin-1-(2H)-one] stands 4.1 nM; under `C=CC(=O)N1CCC[C@H]1C#Cc1c(N)ncnc1-c1cc(F)cc(-n2ccc3cc(C(C)C)cc(F)c3c2=O)c1C` [Example 18, (S)-2-(3-(5-((1-acryloylpyrrolidin-2-yl)ethynyl)-6-aminopyrimidin-4-yl)-6-fluoro-2-methylphenyl)-8-fluoro-6-isoquinolin-1-(2H)-one], 9.7 nM; under `C=C(F)C(=O)N1CCC[C@H]1C#Cc1c(N)ncnc1-c1cc(F)cc(-n2ccc3cc(C4CC4)cc(F)c3c2=O)c1C` [Example 19, (S)-2-(3-(6-amino-5-((1-(2-fluoroacryloyl)pyrrolidin-2-yl)ethynyl)pyrimidin-4-yl)-5-fluoro-2-methylphenyl)-6-cyclopropyl-8-fluoroisoquinolin-1(2H)-one], 201 nM.
On to `C=C(Cl)C(=O)N1CCC[C@H]1C#Cc1c(N)ncnc1-c1cc(F)cc(-n2ccc3cc(C4CC4)cc(F)c3c2=O)c1C` [Example 20, (S)-2-(3-(6-amino-5-((1-(2-chloroacryloyl)pyrrolidin-2-yl)ethynyl)pyrimidin-4-yl)-5-fluoro-2-methylphenyl)-6-cyclopropyl-8-fluoroisoquinolin-1(2H)-one], for which inhibition was half-maximal at 16 nM (IC50). This IC50 lies about 13-fold lower than the previous one.
The result for `C=CC(=O)N1CCCCC1C#Cc1c(N)ncnc1-c1cc(F)cc(-n2ccc3cc(C4CC4)cc(F)c3c2=O)c1C` (stereo not shown) [Example 22, 2-(3-(5-((1-acryloylpiperidin-2-yl)ethynyl)-6-aminopyrimidin-4-yl)-5-fluoro-2-methylphenyl)-6-cyclopropyl-8-isoquinolin-1(2H)-one] reads 5.7 nM.
As to `C=CC(=O)N1CCCC[C@H]1C#Cc1c(N)ncnc1-c1cc(F)cc(-n2ccc3cc(C4CC4)cc(F)c3c2=O)c1C` [Example 23], 8.7 nM corresponded to half-maximal inhibition (IC50).
